# In patent US5409932A, “Piperazine-substituted pyrroloanthracenes” (Bayer AG, priority 1993, dated 1995):
# Tested on: human T cells
# Test: Inhibition of 5-HT-dependent T Cell Proliferation
# Type: cell-based
# Conditions: Homo sapiens, T-cell, monocyte-free human T cells stimulated with PWM and 5-HT; 3H-thymidine incorporation; 7 days
# Text: The in vitro activity of the compounds according to the invention results from their capability to inhibit T cell proliferation, which is previously stimulated by serotonin.
# Inhibition of 5-HT-dependent T Cell Proliferation
# Peripheral mononuclear blood cells (PBMC) are obtained from the buffy coat of the blood of healthy subjects. After isolation by means of isolymph gradients (Pharmacia), the PBMC are washed twice and used directly. Purified T cells are obtained by E rosette formation with sheep erythrocytes [cf. Blue, M.-L. , J. F. Daley, H. Levine, K. A. Craig and S. F. Schlossmann, 1986, Biosynthesis and surface expression of T8 by peripheral blood T4+cells in vitro, J. Immunol. 137, 1202]. Monocytes are partially removed by adhesion to tissue culture plates or flasks. PBMC, T cells or purified T cells (depleted in monocytes) at 5×10^5 /ml, 100 μl/well are cultured in RPMI 1640 medium with 10% fetal calf serum (GIBCO) and L-glutamine in 96-well microculture plates (Becton--Dickinson)under a 5% CO2 atmosphere at 37° C. for 7 days. The cultures are treated with 1 μCi of ^3 H-thymidine for 6 h on the 7th day and collected on filter paper, and the incorporated radioactivity is determined by means of liquid scintillation counting.
# The test substances are dissolved in 10 mM HCl in order to achieve a final concentration of 1 mM in each case. The compounds are diluted serially 3×with medium in order to obtain a final concentration between 33 μM-0.1 μM. PWM (1:200, pokeweed mitogen) and 5-HT (100 μm, serotonin), which contain the test substances, are added to monocyte-free human T cells. The positive control (maximum proliferation) is obtained from cultures containing T cells, PWM and 5-HT. The negative control (minimal proliferation) is obtained from cultures containing T cells and PWM without 5-HT. The inhibitory activity of the test substances is expressed as the IC50 in μM. (see also WO 92/04015)
row,SMILES,IC50 [nM]
1,Cc1ccc(N2CCN(CCCN3CC4C5c6ccccc6C(c6ccccc65)C4C3)CC2)c(C)c1 (centres unmarked) [Example 90],5000
2,CCOc1ccccc1N1CCN(CCCN2CC3C4c5ccccc5C(c5ccccc54)C3C2)CC1 (centres unmarked) [Example 87],5000
3,"Fc1ccc(N2CCN(CCCN3CC4C5c6ccccc6C(c6ccccc65)C4C3)CC2)cc1 (centres unmarked) [Example 58, 13-{3-[4-(4-Fluorophenyl)-piperazin-1-yl]propyl}-9,10,11,12,14,15-hexahydro-9,10[3', 4']pyrroloanthracene]",5000
4,COc1ccccc1N1CCN(CCCCN2CC3C4c5ccccc5C(c5ccccc54)C3C2)CC1 (centres unmarked) [Example 71],5000
5,COc1ccc(N2CCN(CCCN3CC4C5c6ccccc6C(c6ccccc65)C4C3)CC2)cc1 (centres unmarked) [Example 77],7000
6,"O=C1C2C3c4ccccc4C(c4ccccc43)C2C(=O)N1CCCN1CCN(c2ccc(F)cc2)CC1 (centres unmarked) [Example 1, 13-{3-[4-(4-Fluorophenyl)piperazin-1-yl]-propyl}-9,10-dihydro-9,10[3', 4']-pyrroloanthracene-12,14(11H,15H) dione]",> 10000
7,O=C1C2C3c4ccccc4C(Cl)(c4ccccc43)C2C(=O)N1CCCN1CCN(c2ccc(F)cc2)CC1 (centres unmarked) [Example 35],> 10000
8,O=C1C2C3c4ccccc4C(c4ccccc43)C2C(=O)N1CCCCN1CCN(c2ccccc2F)CC1 (centres unmarked) [Example 6],> 10000
9,COc1ccccc1N1CCN(CCCN2CC3C4c5ccccc5C(c5ccccc54)C3C2)CC1 (centres unmarked) [Example 86],3000
10,Cc1ccc(N2CCN(CCCN3CC4C5c6ccccc6C(c6ccccc65)C4C3)CC2)cc1 (centres unmarked) [Example 76],2000
11,CC12c3ccccc3C(c3ccccc31)C1CN(CCCN3CCN(c4ccccc4)CC3)CC12 (centres unmarked) [Example 94],7000
12,O=C1C2C(CN1CCCN1CCN(c3ccc(F)cc3)CC1)C1(Cl)c3ccccc3C2(Cl)c2ccccc21 (centres unmarked) [Example 112],5000
13,NCC12c3ccccc3C(c3ccccc31)C1CN(CCCN3CCN(c4ccc(F)cc4)CC3)CC12 (centres unmarked) [Example 101],1000
14,O=C1C2C3c4ccccc4C(c4ccccc43)C2CN1CCCN1CCN(c2cc(Cl)cc(Cl)c2)CC1 (centres unmarked) [Example 115],2000
15,COC(OC)C12c3ccccc3C(c3ccccc31)C1CN(CCCN3CCN(c4ccc(F)cc4)CC3)CC12 (centres unmarked) [Example 107],1000
16,Cc1cccc(N2CCN(CCCN3CC4C5c6ccccc6C(c6ccccc65)C4C3)CC2)c1 (centres unmarked) [Example 79],1000
17,CC12CN(CCCN3CCN(c4ccc(F)cc4)CC3)CC1C1c3ccccc3C2c2ccccc21 (centres unmarked) [Example 105],2000
18,OCC12c3ccccc3C(c3ccccc31)C1CN(CCCN3CCN(c4ccccc4)CC3)CC12 (centres unmarked) [Example 97],10000
19,FC(F)(F)c1cccc(N2CCN(CCCN3CC4C5c6ccccc6C(c6ccccc65)C4C3)CC2)c1 (centres unmarked) [Example 80],5000
20,O=C1C2C(CN1CCCN1CCN(c3ccc(F)cc3)CC1)C1c3ccccc3C2(c2ccccc2)c2ccccc21 (centres unmarked) [Example 114],2000
21,FC(F)(F)c1ccc(N2CCN(CCCCN3CC4C5c6ccccc6C(c6ccccc65)C4C3)CC2)cc1 (centres unmarked) [Example 73],2000
22,O=C1C2C3c4ccccc4C(c4ccccc43)C2C(=O)N1CCCCN1CCN(c2ccccc2)CC1 (centres unmarked) [Example 4],5000
23,CCOc1ccccc1N1CCN(CCCN2C(=O)C3C4c5ccccc5C(c5ccccc54)C3C2=O)CC1 (centres unmarked) [Example 22],> 10000

row,SMILES,IC50 [nM]
1,Clc1ccc(N2CCN(CCCCN3CC4C5c6ccccc6C(c6ccccc65)C4C3)CC2)cc1 (centres unmarked) [Example 67],2000
2,COc1ccc(N2CCN(CCCN3C(=O)C4C5c6ccccc6C(c6ccccc65)C4C3=O)CC2)cc1 (centres unmarked) [Example 12],> 10000
3,CC12CN(CCCN3CCN(c4ccccc4)CC3)CC1C1c3ccccc3C2c2ccccc21 (centres unmarked) [Example 104],2000
4,Cc1ccc(N2CCN(CCCN3C(=O)C4C5c6ccccc6C(c6ccccc65)C4C3=O)CC2)c(C)c1 (centres unmarked) [Example 25],> 10000
5,O=C1N(CCCN2CCN(c3ccc(F)cc3)CC2)CC2C3c4ccccc4C(c4ccccc43)C12c1ccccc1 (centres unmarked) [Example 117],2000
6,COc1cc(N2CCN(CCCN3CC4C5c6ccccc6C(c6ccccc65)C4C3)CC2)cc(OC)c1OC (centres unmarked) [Example 106],500
7,CCc1ccccc1N1CCN(CCCN2CC3C4c5ccccc5C(c5ccccc54)C3C2)CC1 (centres unmarked) [Example 85],3000
8,O=C1C2C(C(=O)N1CCCN1CCN(c3ccc(F)cc3)CC1)C1(Br)c3ccccc3C2(Br)c2ccccc21 (centres unmarked) [Example 45],> 10000
9,CC12c3ccccc3C(c3ccccc31)C1C(=O)N(CCCN3CCN(c4ccc(F)cc4)CC3)C(=O)C12 (centres unmarked) [Example 31],> 10000
10,O=C1C2C3c4ccccc4C(CCl)(c4ccccc43)C2CN1CCCN1CCN(c2ccc(F)cc2)CC1 (centres unmarked) [Example 113],2000
11,FC(F)(F)c1ccc(N2CCN(CCCN3CC4C5c6ccccc6C(c6ccccc65)C4C3)CC2)cc1 (centres unmarked) [Example 75],2000
12,O=C1C2C3c4ccccc4C(c4ccccc4)(c4ccccc43)C2C(=O)N1CCCN1CCN(c2ccc(F)cc2)CC1 (centres unmarked) [Example 49],> 50000
13,Clc1ccc(N2CCN(CCCCN3CC4C5c6ccccc6C(c6ccccc65)C4C3)CC2)cc1Cl (centres unmarked) [Example 68],5000
14,O=C1C2C(CN1CCCN1CCN(c3ccccc3)CC1)C1(Cl)c3ccccc3C2(Cl)c2ccccc21 (centres unmarked) [Example 116],2000
15,Fc1ccc(N2CCN(CCCN3CC4C5c6ccccc6C(C=Cc6ccccc6)(c6ccccc65)C4C3)CC2)cc1 (centres unmarked) [Example 103],2000
16,Cc1ccccc1N1CCN(CCCN2C(=O)C3C4c5ccccc5C(c5ccccc54)C3C2=O)CC1 (centres unmarked) [Example 19],> 10000
17,Cc1ccc(N2CCN(CCCN3CC4C5c6ccccc6C(c6ccccc65)C4C3)CC2)cc1C (centres unmarked) [Example 92],2000
18,O=C1C2C3c4ccccc4C(c4ccccc43)C2C(=O)N1CCCN1CCN(c2ccccc2F)CC1 (centres unmarked) [Example 18],> 10000
19,C=CC12c3ccccc3C(c3ccccc31)C1CN(CCCN3CCN(c4ccc(F)cc4)CC3)CC12 (centres unmarked) [Example 102],2000
20,Fc1ccccc1N1CCN(CCCN2CC3C4c5ccccc5C(c5ccccc54)C3C2)CC1 (centres unmarked) [Example 83],7000
21,Cc1ccccc1N1CCN(CCCN2CC3C4c5ccccc5C(c5ccccc54)C3C2)CC1 (centres unmarked) [Example 84],2000
22,O=C1C2C3c4ccccc4C(CO)(c4ccccc43)C2C(=O)N1CCCN1CCN(c2ccccc2)CC1 (centres unmarked) [Example 32],> 10000
23,ClC12c3ccccc3C(c3ccccc31)C1CN(CCCN3CCN(c4ccccc4)CC3)CC12 (centres unmarked) [Example 99],8000

# Same assay, conditions: monocyte-free human T cells stimulated with PWM and 5-HT; 3H-thymidine incorporation; 7 days
row,SMILES,IC50 [nM]
1,Clc1ccc(N2CCN(CCCN3CC4C5c6ccccc6C(c6ccccc65)C4C3)CC2)cc1 (centres unmarked) [Example 108],4000
2,CC12c3ccccc3C(C)(c3ccccc31)C1C(=O)N(CCCN3CCN(c4ccc(F)cc4)CC3)C(=O)C12 (centres unmarked) [Example 110],2000
3,CC12c3ccccc3C(C)(c3ccccc31)C1C(=O)N(CCCN3CCN(c4ccc(F)cc4)CC3)C(=O)C12 (centres unmarked) [Example 44],> 10000
4,O=C1C2C(C(=O)N1CCCN1CCN(c3ccc(F)cc3)CC1)C1(Br)c3ccccc3C2(Br)c2ccccc21 (centres unmarked) [Example 111],10000

# Tested on: Adjuvant Arthritis model in the Rat
# Test: Adjuvant Arthritis model in the Rat (paw swelling)
# Type: in vivo
# Conditions: Lewis rats, days 0, 1, 2, 5, 7, 9, 12 and 14, day 16 vs day 0
# Description: Adjuvant Arthritis model in the Rat
# Freund's adjuvant (FA) is prepared by addition of 10 mg/ml of heat-killed Mycobacterium butyricum to extra-heavy mineral oil. Lewis rats receive a 0.1 ml injection of FA (1 mg/animal) subcutaneously in the right hind paw. An acute inflammation takes place there, which is characterized by reddening, edema and a predominant neutrophilic cell infiltration (primary reaction). Tumescent areas in the treated paw on day 5 are followed between day 10-12 by an increase in the swelling (chronic inflammatory reaction) and the occurrence of a swelling in the opposite untreated paw (secondary immune response).
# The cell infiltration of the chronic inflammation and the second immune response are mainly mononuclear, which indicates the presence of T-cell mediated immunity. The animals are observed daily, and the swelling is measured in millimeters on days 12 and 16 using a hand-adjustable micrometer. The swelling reaches its peak on the 16th day, on which the animals are sacrificed and tissue samples are taken for histological evaluation.
# The extent of the swelling is determined by calculation of the greatest difference in the malleolus diameter between the 16th and the 0th day.
# The animals receive the compounds according to the invention in a suspension of 5% polyethylene glycol and 0.5% Tween 80 in phosphate buffer solution p.o. or i.p. on days 0, 1, 2, 5, 7, 9, 12 and 14 [cf. for this purpose L. Sokoloff, 1984, Int. Rev. Exp. Pathol. 26, 107; M. E. J. Bittingham et al., 1989, J. Exp. Med. 171, 339; K. M. Conholly et al., 1989, Agents and Actions 27, 328].
row,SMILES,"Inhibition of the swelling (%), after administration of 10 mg/kg i.p. [%]"
1,Clc1ccc(N2CCN(CCCN3CC4C5c6ccccc6C(c6ccccc65)C4C3)CC2)cc1 (centres unmarked) [Example 108],55

# Same assay, conditions: Rattus norvegicus, ip, 384 h, 10 mg/kg i.p.; Lewis rats; days 0, 1, 2, 5, 7, 9, 12 and 14; day 16 vs day 0; read-out: Inhibition of the swelling (%), after administration of 10 mg/kg i.p.
row,SMILES,inhibition in vivo at 10 mg/kg [%]
1,Cc1ccc(N2CCN(CCCN3CC4C5c6ccccc6C(c6ccccc65)C4C3)CC2)c(C)c1 (centres unmarked) [Example 90],45
2,CCOc1ccccc1N1CCN(CCCN2CC3C4c5ccccc5C(c5ccccc54)C3C2)CC1 (centres unmarked) [Example 87],22
3,O=C1C2C3c4ccccc4C(c4ccccc43)C2C(=O)N1CCCN1CCN(c2ccc(Cl)cc2)CC1 (centres unmarked) [Example 2],4
4,"Fc1ccc(N2CCN(CCCN3CC4C5c6ccccc6C(c6ccccc65)C4C3)CC2)cc1 (centres unmarked) [Example 58, 13-{3-[4-(4-Fluorophenyl)-piperazin-1-yl]propyl}-9,10,11,12,14,15-hexahydro-9,10[3', 4']pyrroloanthracene]",40
5,COc1ccccc1N1CCN(CCCCN2CC3C4c5ccccc5C(c5ccccc54)C3C2)CC1 (centres unmarked) [Example 71],82
